# According to patent US20260232767A1, “INTERLEUKIN-23 RECEPTOR ANTAGONIST PEPTIDES FOR USE IN THE TREATMENT OF PSORIASIS” (Janssen Pharmaceutica NV, priority 2023, published 2026):
# System: subjects with moderate-to-severe plaque psoriasis
# Assay: Safety, adverse events, Example 2 through Week 56
# Assay type: in vivo, human
# Excerpt: The LTE safety analysis was based on randomized participants in Example who entered the present long-term extension study and received at least one dose of study intervention (including a partial dose) during the study period.
# [1] = Combined, Week 16 through Week 56
structure (smiles),measurement,setting,value
"CC(=O)NCCCC[C@@H]1NC(=O)[C@H](Cc2c[nH]c3c(C)cccc23)NC(=O)[C@H]([C@@H](C)O)NC(=O)[C@H](CC(N)=O)NC(=O)[C@@H](NC(C)=O)C(C)(C)SSC(C)(C)[C@@H](C(=O)N[C@@H](Cc2ccc(OCCN)cc2)C(=O)N[C@@H](Cc2ccc3ccccc3c2)C(=O)NC2(C(=O)N[C@@H](CCC(=O)O)C(=O)N[C@@H](CC(N)=O)C(=O)N[C@@H](Cc3cccnc3)C(=O)N(C)CC(N)=O)CCOCC2)NC1=O [IL-23 receptor antagonist peptide, Ac-[Pen]*-N-T-[W(7-Me)]-[Lys(Ac)]-[Pen]*-Phe[4-(2-aminoethoxy)]-[2-Nal]-[THP]-E-N-[3-Pal]-Sarc-NH2 (*[Pen]-[Pen]* formdisulfidebond)]","Respiratory, thoracic and mediastinal disorders: number of subjects","100 mg QD, through Week 56",4
same,Retinal vein occlusion: number of subjects,"100 mg QD, through Week 56",0
same,Rhinorrhoea: number of subjects,"100 mg QD, through Week 56",0
same,Seasonal allergy: number of subjects,"100 mg QD, through Week 56",0
same,Skin and subcutaneous tissue disorders: % of subjects,"100 mg QD, through Week 56",(4.7%)
same,Skin and subcutaneous tissue disorders: number of subjects,"100 mg QD, through Week 56",2
same,Skin laceration: % of subjects,"100 mg QD, through Week 56",(2.3%)
same,Skin laceration: number of subjects,"100 mg QD, through Week 56",1
same,Skin papilloma: number of subjects,"100 mg QD, through Week 56",0
same,Social circumstances: number of subjects,"100 mg QD, through Week 56",0
same,Steatohepatitis: number of subjects,"100 mg QD, through Week 56",0
same,Subjects with AE leading to discontinuation: Abdominal discomfort,"100 mg QD, through Week 56",0
same,Subjects with AE leading to discontinuation: Abdominal pain,"100 mg QD, through Week 56",0
same,Subjects with AE leading to discontinuation: Alanine aminotransferase increased,"100 mg QD, through Week 56",0
same,Subjects with AE leading to discontinuation: Aspartate aminotransferase increased,"100 mg QD, through Week 56",0
same,Subjects with AE leading to discontinuation: Asthenia,"100 mg QD, through Week 56",0
same,Subjects with AE leading to discontinuation: Gamma-glutamyltransferase increased,"100 mg QD, through Week 56",0
same,Subjects with AE leading to discontinuation: Insomnia,"100 mg QD, through Week 56",0
same,Subjects with AE leading to discontinuation: Investigations,"100 mg QD, through Week 56",0
same,Subjects with AE leading to discontinuation: Nausea,"100 mg QD, through Week 56",0
same,Subjects with AE leading to discontinuation: Proctalgia,"100 mg QD, through Week 56",0
same,Subjects with AE leading to discontinuation: Psoriasis,"100 mg QD, through Week 56",0
same,Subjects with AE leading to discontinuation: Skin and subcutaneous tissue disorders,"100 mg QD, through Week 56",0
same,Subjects with AE leading to discontinuation: Transaminases increased,"100 mg QD, through Week 56",0
same,Subjects with AE leading to discontinuation: Weight increased,"100 mg QD, through Week 56",0
same,Subjects with COVID-19 associated AE: SARS-CoV-2 test positive,"100 mg QD, through Week 56",0
same,Subjects with treatment-emergent AE: Alanine aminotransferase increased,"100 mg QD, through Week 56",0
same,Subjects with treatment-emergent AE: Aspartate aminotransferase increased,"100 mg QD, through Week 56",0
same,Subjects with treatment-emergent AE: Bronchitis,"100 mg QD, through Week 56",0
same,Subjects with treatment-emergent AE: Headache,"100 mg QD, through Week 56",5
same,Subjects with treatment-emergent AE: Urinary tract infection,"100 mg QD, through Week 56",0
same,Subjects with treatment-emergent serious AE: Cardiac disorders,"100 mg QD, through Week 56",0
same,Subjects with treatment-emergent serious AE: Cerebrovascular accident,"100 mg QD, through Week 56",0
same,Subjects with treatment-emergent serious AE: Coronary artery disease,"100 mg QD, through Week 56",0
same,Subjects with treatment-emergent serious AE: Foot deformity,"100 mg QD, through Week 56",0
same,Subjects with treatment-emergent serious AE: General disorders and administration site conditions,"100 mg QD, through Week 56",0
same,Subjects with treatment-emergent serious AE: Infected cyst,"100 mg QD, through Week 56",0
same,"Subjects with treatment-emergent serious AE: Injury, poisoning and procedural complications","100 mg QD, through Week 56",0
same,Subjects with treatment-emergent serious AE: Ligament injury,"100 mg QD, through Week 56",0
same,"Subjects with treatment-emergent serious AE: Neoplasms benign, malignant and unspecified (incl cysts and polyps)","100 mg QD, through Week 56",0
same,Subjects with treatment-emergent serious AE: Nervous system disorders,"100 mg QD, through Week 56",0
same,Subjects with treatment-emergent serious AE: Non-cardiac chest pain,"100 mg QD, through Week 56",0
same,"Subjects with treatment-emergent serious AE: Respiratory, thoracic and mediastinal disorders","100 mg QD, through Week 56",0
same,Subjects with treatment-emergent serious AE: Tonsillar hypertrophy,"100 mg QD, through Week 56",0
same,Subjects with treatment-emergent serious AE: Uterine leiomyoma,"100 mg QD, through Week 56",0
same,Subjects with treatment-emergent serious AE: Ventricular dysfunction,"100 mg QD, through Week 56",0
same,Suicide attempt: % of subjects,"100 mg QD, through Week 56",(2.3%)
same,Suicide attempt: number of subjects,"100 mg QD, through Week 56",1
same,Sunburn: number of subjects,"100 mg QD, through Week 56",0
same,Thrombocytopenia: number of subjects,"100 mg QD, through Week 56",0
same,Thrombocytosis: number of subjects,"100 mg QD, through Week 56",0
same,Tonsillar hypertrophy: number of subjects,"100 mg QD, through Week 56",0
same,Tooth fracture: number of subjects,"100 mg QD, through Week 56",0
same,Type 2 diabetes mellitus: number of subjects,"100 mg QD, through Week 56",0
same,Urinary tract disorder: number of subjects,"100 mg QD, through Week 56",0
same,Uterine leiomyoma: number of subjects,"100 mg QD, through Week 56",0
same,Vascular disorders: % of subjects,"100 mg QD, through Week 56",(2.3%)
same,Vascular disorders: number of subjects,"100 mg QD, through Week 56",1
same,Ventricular dysfunction: number of subjects,"100 mg QD, through Week 56",0
same,Vertigo: % of subjects,"100 mg QD, through Week 56",(2.3%)
same,Vertigo: number of subjects,"100 mg QD, through Week 56",1
same,Vitamin D deficiency: number of subjects,"100 mg QD, through Week 56",0
same,Number of subjects with treatment-emergent AE: Cholelithiasis,[1],1
same,Number of subjects with treatment-emergent AE: Ear and labyrinth disorders,[1],2
same,Number of subjects with treatment-emergent AE: Endocrine disorders,[1],1
same,Number of subjects with treatment-emergent AE: Eye disorders,[1],3
same,Number of subjects with treatment-emergent AE: Eyelid skin dryness,[1],1
same,Number of subjects with treatment-emergent AE: Goiter,[1],1
same,Number of subjects with treatment-emergent AE: Hepatobiliary disorders,[1],2
same,Number of subjects with treatment-emergent AE: Hypertransaminasemia,[1],1
same,Number of subjects with treatment-emergent AE: Immune system disorders,[1],2
same,Number of subjects with treatment-emergent AE: Insomnia,[1],1
same,Number of subjects with treatment-emergent AE: Ocular cyst,[1],1
same,Number of subjects with treatment-emergent AE: Psychiatric disorders,[1],1
same,Number of subjects with treatment-emergent AE: Retinal vein occlusion,[1],1
same,Number of subjects with treatment-emergent AE: Seasonal allergy,[1],2
same,Number of subjects with treatment-emergent AE: Vertigo,[1],2
same,Subjects with treatment-emergent AE: Cholelithiasis (%),[1],(0.4%)
same,Subjects with treatment-emergent AE: Ear and labyrinth disorders (%),[1],(0.9%)
same,Subjects with treatment-emergent AE: Endocrine disorders (%),[1],(0.4%)
same,Subjects with treatment-emergent AE: Eye disorders (%),[1],(1.3%)
same,Subjects with treatment-emergent AE: Eyelid skin dryness (%),[1],(0.4%)
same,Subjects with treatment-emergent AE: Goiter (%),[1],(0.4%)
same,Subjects with treatment-emergent AE: Hepatobiliary disorders (%),[1],(0.9%)
same,Subjects with treatment-emergent AE: Hypertransaminasemia (%),[1],(0.4%)
same,Subjects with treatment-emergent AE: Immune system disorders (%),[1],(0.9%)
same,Subjects with treatment-emergent AE: Insomnia (%),[1],(0.4%)
same,Subjects with treatment-emergent AE: Ocular cyst (%),[1],(0.4%)
same,Subjects with treatment-emergent AE: Psychiatric disorders (%),[1],(0.4%)
same,Subjects with treatment-emergent AE: Retinal vein occlusion (%),[1],(0.4%)
same,Subjects with treatment-emergent AE: Seasonal allergy (%),[1],(0.9%)
same,Subjects with treatment-emergent AE: Ventricular dysfunction (%),[1],(0.4%)
same,Subjects with treatment-emergent AE: Vertigo (%),[1],(0.9%)
same,Acrochordon: % of subjects,"Combined, through Week 56",(0.8%)
same,Acrochordon: number of subjects,"Combined, through Week 56",2
same,Actinic keratosis: % of subjects,"Combined, through Week 56",(0.4%)
same,Actinic keratosis: number of subjects,"Combined, through Week 56",1
same,Alopecia: % of subjects,"Combined, through Week 56",(0.4%)
same,Alopecia: number of subjects,"Combined, through Week 56",1
same,Asthenia: % of subjects,"Combined, through Week 56",(0.4%)
same,Asthenia: number of subjects,"Combined, through Week 56",1
same,Asthma: % of subjects,"Combined, through Week 56",(0.4%)
same,Asthma: number of subjects,"Combined, through Week 56",1
same,Atrioventricular block first degree: % of subjects,"Combined, through Week 56",(0.4%)
same,Atrioventricular block first degree: number of subjects,"Combined, through Week 56",1
same,Basal cell carcinoma: % of subjects,"Combined, through Week 56",(0.4%)
same,Basal cell carcinoma: number of subjects,"Combined, through Week 56",1
same,Blood and lymphatic system disorders: % of subjects,"Combined, through Week 56",(2.0%)
same,Blood and lymphatic system disorders: number of subjects,"Combined, through Week 56",5
same,Bronchitis chronic: % of subjects,"Combined, through Week 56",(0.4%)
same,Bronchitis chronic: number of subjects,"Combined, through Week 56",1
same,Bundle branch block right: % of subjects,"Combined, through Week 56",(0.4%)
same,Bundle branch block right: number of subjects,"Combined, through Week 56",1
same,Cardiac disorders: % of subjects,"Combined, through Week 56",(1.6%)
same,Cardiac disorders: number of subjects,"Combined, through Week 56",4
same,Chills: % of subjects,"Combined, through Week 56",(0.8%)
same,Chills: number of subjects,"Combined, through Week 56",2
same,Cholelithiasis: % of subjects,"Combined, through Week 56",(0.4%)
same,Cholelithiasis: number of subjects,"Combined, through Week 56",1
same,Chronic obstructive pulmonary disease: % of subjects,"Combined, through Week 56",(0.4%)
same,Chronic obstructive pulmonary disease: number of subjects,"Combined, through Week 56",1
